# Test results taken from US20240116985A1, “STAPLED PEPTIDES AND METHODS THEREOF” (priority 2020, published 2024).
# Where two headings read alike, the source gives them in different places.
# Columns and labels:
# [1] = molecular target: T1, full-length beta-Catenin (Uniprot ID P35222) (Homo sapiens, UniProt P35222); assay: Fluorescence polarization IC50 (beta-catenin / 5FAM-TCF4 10-53 competition); assay type: binding
# T1 construct: 10 nM full-length beta-Catenin (Uniprot ID P35222)
# T1 sequence (P35222 1-781): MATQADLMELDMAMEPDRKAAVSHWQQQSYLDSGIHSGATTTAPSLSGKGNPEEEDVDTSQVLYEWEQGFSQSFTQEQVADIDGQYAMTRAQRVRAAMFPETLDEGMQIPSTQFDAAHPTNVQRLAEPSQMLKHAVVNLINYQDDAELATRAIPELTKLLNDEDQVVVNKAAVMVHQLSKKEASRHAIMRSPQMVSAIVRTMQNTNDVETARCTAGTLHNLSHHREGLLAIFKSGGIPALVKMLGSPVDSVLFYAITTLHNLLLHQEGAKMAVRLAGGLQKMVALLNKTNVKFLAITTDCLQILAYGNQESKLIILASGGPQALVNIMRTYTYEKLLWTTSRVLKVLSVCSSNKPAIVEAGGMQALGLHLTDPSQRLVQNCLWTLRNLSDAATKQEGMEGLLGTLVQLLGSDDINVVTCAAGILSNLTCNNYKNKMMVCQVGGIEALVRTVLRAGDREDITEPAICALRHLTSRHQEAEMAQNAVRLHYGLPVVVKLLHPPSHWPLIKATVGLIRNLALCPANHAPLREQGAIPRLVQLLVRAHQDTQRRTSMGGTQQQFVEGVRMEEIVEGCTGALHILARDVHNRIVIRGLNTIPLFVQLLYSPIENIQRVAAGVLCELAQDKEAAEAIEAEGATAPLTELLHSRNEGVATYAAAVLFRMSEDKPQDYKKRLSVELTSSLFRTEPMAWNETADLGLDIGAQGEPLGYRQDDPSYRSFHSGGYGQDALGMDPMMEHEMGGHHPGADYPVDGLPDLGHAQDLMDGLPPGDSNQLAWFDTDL
# [2] = molecular target: T2, beta-catenin/TCF4 engagement (Homo sapiens, UniProt P35222); assay: Nano-BRET target engagement assay (B-cat-Halo & TCF4-Luc in HEK293 cells); assay type: cell-based; conditions: read-out: NanoBRET Abs IC50
# T2 construct: expressed in transfected cells; host or cells: HEK293
# T2 sequence (P35222 1-781): T1 sequence (P35222 1-781)
# [3] = fluorescence polarization; read-out: beta-Catenin FP IC50
"IC50 [1, 3] [nM]",IC50 [2] [nM],SMILES,IC50 ([1]; read-out: beta-Catenin FP IC50; fluorescence polarization) [nM],IC50 ([1]; read-out: beta-Catenin FP IC50) [nM]
5,5000,"CC(=O)N1CCC[C@]12CC=CCCCC1(CCCC=CCCCOC(=O)N3CC[C@@](C(=O)N[C@@H](Cc4ccsc4)C(=O)N[C@@H](Cc4ccc(Cl)c(Cl)c4)C(=O)N[C@@H](CCC(N)=O)C(N)=O)(C3)NC(=O)[C@H](CC(C)C)NC(=O)[C@H](Cc3ccccc3)NC(=O)[C@H](C)NC(=O)[C@H](C)NC(=O)[C@H](CC(=O)O)NC(=O)[C@H](CC(=O)O)NC1=O)NC(=O)[C@H](CC(C)(C)C)NC(=O)[C@H](CC(=O)O)NC2=O (stereo partly drawn) [I-2183, Ac-PL3-Asp-Npg-B5-Asp-Asp-Ala-Ala-Phe-Leu-PyrS2-3Thi-34C1F-Gln-NH2]",–,–
11,7600,"CC(=O)N1CCC[C@]12CC=CCCCC1(CCCC=CCCCOC(=O)N3CC[C@@](C(=O)N[C@@H](Cc4ccsc4)C(=O)N[C@@H](Cc4csc5ccccc45)C(=O)N[C@@H](C)C(N)=O)(C3)NC(=O)[C@H](CC(C)C)NC(=O)[C@H](Cc3ccccc3)NC(=O)[C@H](C)NC(=O)[C@H](CC(=O)N(C)C)NC(=O)[C@H](Cc3cccc(C(=O)O)c3)NC(=O)[C@H](CC(=O)O)NC1=O)NC(=O)[C@H](CC(C)(C)C)NC(=O)[C@H](CC(=O)O)NC2=O (stereo partly drawn) [I-2188, Ac-PL3-Asp-Npg-B5-Asp-3COOHF-Me2Asn-Ala-Phe-Leu-PyrS2-3Thi-BztA-Ala-NH2]",–,–
83,33400,"CCCC[C@@H]1NC(=O)[C@H](Cc2cccc(C(=O)O)c2)NC(=O)[C@H](CC(=O)O)NC(=O)C2(CCCC=CCCCOC(=O)N3CC[C@@](C(=O)N[C@@H](Cc4ccsc4)C(=O)N[C@@H](Cc4csc5ccccc45)C(=O)N[C@H](C(N)=O)C(C)C)(C3)NC(=O)[C@H](CC(C)C)NC(=O)[C@H](Cc3ccccc3)NC(=O)[C@H](C)NC1=O)CCCC=CC[C@]1(CCCN1C(C)=O)C(=O)N[C@@H](CC(=O)O)C(=O)N[C@@H](CC(C)(C)C)C(=O)N2 (stereo partly drawn) [I-2189, Ac-PL3-Asp-Npg-B5-Asp-3COOHF-nLeu-Ala-Phe-Leu-PyrS2-3Thi-BztA-Val-NH2]",–,–
28,33400,"CC(=O)N1CCC[C@]12CC=CCCCC1(CCCC=CCCCOC(=O)N3CC[C@@](C(=O)N[C@@H](Cc4ccsc4)C(=O)N[C@@H](Cc4csc5ccccc45)C(=O)N[C@H](C(N)=O)C(C)C)(C3)NC(=O)[C@H](CC(C)C)NC(=O)[C@H](Cc3ccccc3)NC(=O)[C@H](C)NC(=O)[C@H](CO)NC(=O)[C@H](Cc3cccc(C(=O)O)c3)NC(=O)[C@H](CC(=O)O)NC1=O)NC(=O)[C@H](CC(C)(C)C)NC(=O)[C@H](CC(=O)O)NC2=O (stereo partly drawn) [I-2190, Ac-PL3-Asp-Npg-B5-Asp-3COOHF-Ser-Ala-Phe-Leu-PyrS2-3Thi-BztA-Val-NH2]",–,–
16,29500,"CC(=O)N1CCC[C@]12CC=CCCCC1(CCCC=CCCCOC(=O)N3CC[C@@](C(=O)N[C@@H](Cc4ccsc4)C(=O)N[C@@H](Cc4csc5ccccc45)C(=O)N[C@H](C(N)=O)C(C)C)(C3)NC(=O)[C@H](CC(C)C)NC(=O)[C@H](Cc3ccccc3)NC(=O)[C@H](C)NC(=O)[C@H](CC(=O)N(C)C)NC(=O)[C@H](Cc3cccc(C(=O)O)c3)NC(=O)[C@H](CC(=O)O)NC1=O)NC(=O)[C@H](CC(C)(C)C)NC(=O)[C@H](CC(=O)O)NC2=O (stereo partly drawn) [I-2191, Ac-PL3-Asp-Npg-B5-Asp-3COOHF-Me2Asn-Ala-Phe-Leu-PyrS2-3Thi-BztA-Val-NH2]",–,–
22,16100,"CC(=O)N1CCC[C@]12CC=CCCCC1(CCCC=CCCCOC(=O)N3CC[C@@](C(=O)N[C@@H](Cc4ccsc4)C(=O)N[C@@H](Cc4csc5ccccc45)C(=O)N[C@@H](CC(C)(C)C)C(N)=O)(C3)NC(=O)[C@H](CC(C)C)NC(=O)[C@H](Cc3ccccc3)NC(=O)[C@H](C)NC(=O)[C@H](CCC(N)=O)NC(=O)[C@H](Cc3cccc(C(=O)O)c3)NC(=O)[C@H](CC(=O)O)NC1=O)NC(=O)[C@H](CC(C)(C)C)NC(=O)[C@H](CC(=O)O)NC2=O (stereo partly drawn) [I-2192, Ac-PL3-Asp-Npg-B5-Asp-3COOHF-Gln-Ala-Phe-Leu-PyrS2-3Thi-BztA-Npg-NH2]",–,–
164,39900,"CCCC[C@@H]1NC(=O)[C@H](Cc2cccc(C(=O)O)c2)NC(=O)[C@H](CC(=O)O)NC(=O)C2(CCCC=CCCCOC(=O)N3CC[C@@](C(=O)N[C@@H](Cc4ccsc4)C(=O)N[C@@H](Cc4csc5ccccc45)C(=O)N[C@@H](CC(C)(C)C)C(N)=O)(C3)NC(=O)[C@H](CC(C)C)NC(=O)[C@H](Cc3ccccc3)NC(=O)[C@H](C)NC1=O)CCCC=CC[C@]1(CCCN1C(C)=O)C(=O)N[C@@H](CC(=O)O)C(=O)N[C@@H](CC(C)(C)C)C(=O)N2 (stereo partly drawn) [I-2193, Ac-PL3-Asp-Npg-B5-Asp-3COOHF-nLeu-Ala-Phe-Leu-PyrS2-3Thi-BztA-Npg-NH2]",–,–
91,8800,"CC(=O)N1CCC[C@]12CC=CCCCC1(CCCC=CCCCOC(=O)N3CC[C@@](C(=O)N[C@@H](Cc4ccsc4)C(=O)N[C@@H](Cc4csc5ccccc45)C(=O)N[C@@H](CC(C)(C)C)C(N)=O)(C3)NC(=O)[C@H](CC(C)C)NC(=O)[C@H](Cc3ccccc3)NC(=O)[C@H](C)NC(=O)C(C)(C)NC(=O)[C@H](Cc3cccc(C(=O)O)c3)NC(=O)[C@H](CC(=O)O)NC1=O)NC(=O)[C@H](CC(C)(C)C)NC(=O)[C@H](CC(=O)O)NC2=O (stereo partly drawn) [I-2194, Ac-PL3-Asp-Npg-B5-Asp-3COOHF-Aib-Ala-Phe-Leu-PyrS2-3Thi-BztA-Npg-NH2]",–,–
62,21000,"CC(=O)N1CCC[C@]12CC=CCCCC1(CCCC=CCCCOC(=O)N3CC[C@@](C(=O)N[C@@H](Cc4ccsc4)C(=O)N[C@@H](Cc4csc5ccccc45)C(=O)N[C@@H](CC(C)(C)C)C(N)=O)(C3)NC(=O)[C@H](CC(C)C)NC(=O)[C@H](Cc3ccccc3)NC(=O)[C@H](C)NC(=O)[C@H](CO)NC(=O)[C@H](Cc3cccc(C(=O)O)c3)NC(=O)[C@H](CC(=O)O)NC1=O)NC(=O)[C@H](CC(C)(C)C)NC(=O)[C@H](CC(=O)O)NC2=O (stereo partly drawn) [I-2195, Ac-PL3-Asp-Npg-B5-Asp-3COOHF-Ser-Ala-Phe-Leu-PyrS2-3Thi-BztA-Npg-NH2]",–,–
11,5000,"CC(=O)N1CCC[C@]12CC=CCCCC1(CCCC=CCCCOC(=O)N3CC[C@@](C(=O)N[C@@H](Cc4ccsc4)C(=O)N[C@@H](Cc4csc5ccccc45)C(=O)N[C@@H](CO)C(N)=O)(C3)NC(=O)[C@H](CC(C)C)NC(=O)[C@H](Cc3ccccc3)NC(=O)[C@H](C)NC(=O)[C@H](C)NC(=O)[C@H](Cc3ccc(F)c(C(=O)O)c3)NC(=O)[C@H](CC(=O)O)NC1=O)NC(=O)[C@H](CC(C)(C)C)NC(=O)[C@H](CC(=O)O)NC2=O (stereo partly drawn) [I-2202, Ac-PL3-Asp-Npg-B5-Asp-4F3COOHF-Ala-Ala-Phe-Leu-PyrS2-3Thi-BztA-Ser-NH2]",–,–
9,2900,"CC(=O)N1CCC[C@]12CC=CCCCC1(CCCC=CCCCOC(=O)N3CC[C@@](C(=O)N[C@@H](Cc4ccccc4Cl)C(=O)N[C@@H](Cc4csc5ccccc45)C(=O)N[C@@H](CCC(N)=O)C(N)=O)(C3)NC(=O)[C@H](CC(C)C)NC(=O)[C@H](Cc3ccccc3)NC(=O)[C@H](C)NC(=O)[C@H](C)NC(=O)[C@H](Cc3ccc(F)c(C(=O)O)c3)NC(=O)[C@H](CC(=O)O)NC1=O)NC(=O)[C@H](CC(C)(C)C)NC(=O)[C@H](CC(=O)O)NC2=O (stereo partly drawn) [I-2203, Ac-PL3-Asp-Npg-B5-Asp-4F3COOHF-Ala-Ala-Phe-Leu-PyrS2-2C1F-BztA-Gln-NH2]",–,–

SMILES,"IC50 [1, 3] [nM]",IC50 [2] [nM],IC50 ([1]; read-out: beta-Catenin FP IC50; fluorescence polarization) [nM],IC50 ([1]; read-out: beta-Catenin FP IC50) [nM]
"CC(=O)N1CCC[C@]12CC=CCCCC1(CCCC=CCCCOC(=O)N3CC[C@@](C(=O)N[C@@H](Cc4ccsc4)C(=O)N[C@@H](Cc4csc5ccccc45)C(=O)N[C@@H](CCC(N)=O)C(N)=O)(C3)NC(=O)[C@H](CC(C)C)NC(=O)[C@@H](Cc3cccc(S(=O)(=O)F)c3)NC(=O)[C@H](C)NC(=O)[C@H](C)NC(=O)[C@H](CN(CC(=O)O)CC(F)(F)F)NC(=O)[C@H](CC(=O)O)NC1=O)NC(=O)[C@H](CC(C)(C)C)NC(=O)[C@H](CC(=O)O)NC2=O (stereo partly drawn) [I-2185, Ac-PL3-Asp-Npg-B5-Asp-TfeGA-Ala-Ala-3SO2F-Leu-PyrS2-3Thi-BztA-Gln-NH2]",–,6100,42,–
"CC(=O)N1CCC[C@]12CC=CCCCC1(CCCC=CCCCOC(=O)N3CC[C@@](C(=O)N[C@@H](Cc4ccsc4)C(=O)N[C@@H](Cc4csc5ccccc45)C(=O)NC(CCCCNC(=O)c4ccc5c(c4)B(O)OC5)C(N)=O)(C3)NC(=O)[C@H](CC(C)C)NC(=O)[C@H](Cc3ccccc3)NC(=O)[C@H](C)NC(=O)[C@H](C)NC(=O)[C@H](CN(CC(=O)O)CC(F)(F)F)NC(=O)[C@H](CC(=O)O)NC1=O)NC(=O)[C@H](CC(C)(C)C)NC(=O)[C@H](CC(=O)O)NC2=O (stereo partly drawn) [I-2187, Ac-PL3-Asp-Npg-B5-Asp-TfeGA-Ala-Ala-Phe-Leu-PyrS2-3Thi-BztA-BnBoroleK-NH2]",–,10800,–,28
